{"source": "patent US10793554B2", "about": "“Solid forms of 4-(2-fluoro-4-(1-methyl-1H-benzo[d]imidazol-5-yl)benzoyl)piperazin-1-yl)(1-hydroxycyclopropyl)methanone” (FORMA Therapeutics, Inc., priority 2018, dated 2020)", "type_in_all_cases": "physicochemical", "key": {"[1]": {"assay": "Slurry stability evaluation of Mixture A (XRPD of collected solids)", "details": "4 days", "description": "(§1) High resolution XRPD experiments were performed with Panalytical X′Pert^3 Powder XRPD on a Si zero-background holder. The 2θposition was calibrated against Panalytical 640 Si powder standard.\nThe solids collected were analyzed by XRPD to confirm the form change."}, "[2]": {"assay": "Chemical stability study at elevated temperature and controlled relative humidity", "description": "A study was conducted on a sample of Compound 1 (Form B) where samples were exposed (open) to a range of elevated temperatures (50-80° C.) and controlled relative humidity (RH) (0-80% RH)."}, "[3]": {"assay": "Dynamic Vapor Sorption (DVS) of Form B", "text": "DVS was obtained using a Surface Measurement System (SMS) DVS Intrinsic. The details of the method are providing in Table 4, below:\nThe sample was non-hygroscopic."}, "[4]": {"assay": "Kinetic solubility of Form B in formulation (0.5% MC, 0.5% Tween 80 in water), HPLC", "details": "0.5% MC and 0.5% Tween 80 in water", "description": "High Pressure Liquid Chromatography (HPLC) data was obtained according to Table 5, below:\n(§2) Kinetic solubility and phase stability of Form B was tested in a formulation (0.5% methyl cellulose (MC) and 0.5% Tween 80 in water). The sample was monitored by XRPD at 1, 2, 4 and 24 hours for phase stability. […] Kinetic solubility of Form B was measured in the same formulation at time points of 1, 2, 4 and 24 hour (Table 8). The supernatant was obtained by filtration and the concentration was measured by HPLC."}, "[5]": {"assay": "Phase stability of Form B in formulation (XRPD)", "details": "after 24 h; 0.5% MC and 0.5% Tween 80 in water", "description": "as §1, §2"}, "[6]": {"assay": "Slurry competition of Form B and Form C at different water activity (XRPD)", "details": "for Results (solid form after slurry competition): 4 days", "description": "as §1\nForm C was dissolved in three solvent mixtures (see Table 7) to get saturated solutions. Similar mass of Form B and Form C were added into the saturated solutions. The suspensions obtained were stirred at room temperature for 4 days and the solids collected were analyzed with XRPD."}}, "note": "Entries after “also recorded” stand apart in the source; their conditions may differ.", "data": [{"smiles": "Cn1cnc2cc(-c3ccc(C(=O)N4CCN(C(=O)C5(O)CC5)CC4)c(F)c3)ccc21", "note": "[Mixture A, (4-(2-fluoro-4-(1-methyl-1H-benzo[d]imidazol-5-yl)benzoyl)piperazin-1-yl)(1-hydroxycyclopropyl)methanone]", "values": [{"measurement": "Results (solid form after slurry)", "setting": "[1]; ACN, 50° C.", "result": "Form B"}, {"measurement": "Results (solid form after slurry)", "setting": "[1]; ACN, RT", "result": "Form B"}, {"measurement": "form conversion of solids from the slurries (summary)", "setting": "[1]; EtOAc or ACN, RT or 50° C.", "result": "converted to Form B completely"}, {"measurement": "Results (solid form after slurry)", "setting": "[1]; EtOAc, 50° C.", "result": "Form B"}, {"measurement": "Results (solid form after slurry)", "setting": "[1]; EtOAc, RT", "result": "Form B"}]}, {"smiles": "Cn1cnc2cc(-c3ccc(C(=O)N4CCN(C(=O)C5(O)CC5)CC4)c(F)c3)ccc21", "note": "[Compound 1, (4-(2-fluoro-4-(1-methyl-1H-benzo[d]imidazol-5-yl)benzoyl)piperazin-1-yl)(1-hydroxycyclopropyl)methanone]", "values": [{"measurement": "estimated shelf life", "setting": "[2]; 25° C./60% RH, Form B sample", "result": "greater than 5 years"}, {"measurement": "chemical stability", "setting": "[2]; Form B sample exposed open to 50-80° C., 0-80% RH", "result": "good chemical stability"}]}, {"smiles": "Cn1cnc2cc(-c3ccc(C(=O)N4CCN(C(=O)C5(O)CC5)CC4)c(F)c3)ccc21", "note": "[Form B, (4-(2-fluoro-4-(1-methyl-1H-benzo[d]imidazol-5-yl)benzoyl)piperazin-1-yl)(1-hydroxycyclopropyl)methanone]", "values": [{"measurement": "form change before and after DVS (XRPD)", "setting": "[3]", "result": "no form change"}, {"measurement": "hygroscopicity (DVS)", "setting": "[3]; 25° C.", "result": "non-hygroscopic"}, {"measurement": "mass change (DVS)", "setting": "[3]; from 0% RH to 95% RH at 25° C.", "result": 0.46, "unit": "wt %"}, {"measurement": "solubility at 1 h", "setting": "[4]; 0.5% methyl cellulose and 0.5% Tween 80 in water, aqueous with cosolvent or surfactant or cyclodextrin, thermodynamic from solid, 1 h, RT", "result": 62, "unit": "µg/mL"}, {"measurement": "solubility at 2 h", "setting": "[4]; 0.5% methyl cellulose and 0.5% Tween 80 in water, aqueous with cosolvent or surfactant or cyclodextrin, thermodynamic from solid, 2 h, RT", "result": 62, "unit": "µg/mL"}, {"measurement": "solubility at 4 h", "setting": "[4]; 0.5% methyl cellulose and 0.5% Tween 80 in water, aqueous with cosolvent or surfactant or cyclodextrin, thermodynamic from solid, 4 h, RT", "result": 63, "unit": "µg/mL"}, {"measurement": "solubility at 24 h", "setting": "[4]; 0.5% methyl cellulose and 0.5% Tween 80 in water, aqueous with cosolvent or surfactant or cyclodextrin, thermodynamic from solid, 24 h, RT", "result": 60, "unit": "µg/mL"}, {"measurement": "Purity of solubility sample", "setting": "[4]; 1 h", "result": 97.8, "unit": "% area at 240 nm"}, {"measurement": "Purity of solubility sample", "setting": "[4]; 2 h", "result": 97.8, "unit": "% area at 240 nm"}, {"measurement": "Purity of solubility sample", "setting": "[4]; 4 h", "result": 97.7, "unit": "% area at 240 nm"}, {"measurement": "Purity of solubility sample", "setting": "[4]; 24 h", "result": 97.7, "unit": "% area at 240 nm"}, {"measurement": "course of solubility over time", "setting": "[4]; during 24 hours at RT", "result": "remained stable"}, {"measurement": "degradation in the solubility sample / vehicle", "setting": "[4]; up to 24 h", "result": "No significant degradation; also recorded: no form change or significant degradation"}, {"measurement": "phase transformation / form change in formulation (XRPD)", "setting": "[5]", "result": "no phase transformation; also recorded: no form change"}]}, {"smiles": "Cn1cnc2cc(-c3ccc(C(=O)N4CCN(C(=O)C5(O)CC5)CC4)c(F)c3)ccc21", "note": "[Form B and Form C, (4-(2-fluoro-4-(1-methyl-1H-benzo[d]imidazol-5-yl)benzoyl)piperazin-1-yl)(1-hydroxycyclopropyl)methanone]", "values": [{"measurement": "Results (solid form after slurry competition)", "setting": "[6]; H2O/MeOH (85:915 v/v), Aw 0.25, RT", "result": "Form B"}, {"measurement": "Results (solid form after slurry competition)", "setting": "[6]; H2O/MeOH (225:775 v/v), Aw 0.5, RT", "result": "Form B"}, {"measurement": "Results (solid form after slurry competition)", "setting": "[6]; H2O/MeOH (494:506 v/v), Aw 0.75, 50° C.", "result": "Form B"}, {"measurement": "form conversion in slurry competition (summary)", "setting": "[6]; H2O/MeOH mixtures, Aw 0.25-0.75, 4 days", "result": "converted completely to Form B"}]}]}
